Experimental data as given in PubChem BioAssay (NCI).
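48-hour exposure; five concentrations; linearly interpolated endpoints. GI50 = concentration required for 50% inhibition of growth. TGI is the concentration that stops growth completely.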

Legend:
Experiment in all cases: NCI tumour cell line growth inhibition, 48 h
MDA-MB-231 breast = system: MDA-MB-231 breast
MCF7 breast = system: MCF7 breast
NCI/ADR-RES ovarian = system: NCI/ADR-RES ovarian
PC-3 prostate = system: PC-3 prostate
DU-145 prostate = system: DU-145 prostate
786-0 renal = system: 786-0 renal
T-47D breast = system: T-47D breast
MDA-MB-435 = system: MDA-MB-435
MDA-N = system: MDA-N
HOP-18 NSCLC = system: HOP-18 NSCLC
DMS 114 small cell lung = system: DMS 114 small cell lung
M19-MEL melanoma = system: M19-MEL melanoma
BT-549 breast = system: BT-549 breast

Row | SMILES | TGI (MDA-MB-231 breast) [µM] | TGI (MCF7 breast) [µM] | TGI (NCI/ADR-RES ovarian) [µM] | TGI (PC-3 prostate) [µM] | TGI (DU-145 prostate) [µM] | TGI (786-0 renal) [µM] | TGI (T-47D breast) [µM] | TGI (MDA-MB-435) [µM] | TGI (MDA-N) [µM] | GI50 (MDA-MB-231 breast) [µM] | GI50 (MCF7 breast) [µM] | GI50 (NCI/ADR-RES ovarian) [µM] | GI50 (PC-3 prostate) [µM] | GI50 (DU-145 prostate) [µM] | GI50 (T-47D breast) [µM] | GI50 (MDA-MB-435) [µM] | TGI (HOP-18 NSCLC) [µM] | TGI (DMS 114 small cell lung) [µM] | TGI (M19-MEL melanoma) [µM] | TGI (BT-549 breast) [µM]
1 | COc1ccc(S(=O)(=O)Nc2ccc(-c3csc(N4C(=O)/C(=C/c5cccs5)N=C4c4ccccc4)n3)cc2)cc1Cl | > 100 | > 100 | > 100 | > 100 | > 100 | > 100 | 85 | > 100 | > 100 |  |  |  |  |  |  |  |  |  |  | 
2 | CCCCCCCCCC[N+](C)(C)C | 4.38 | 12.7 | 49.6 | 5.16 | 4.88 |  | 8.33 | 4.29 |  | 1.59 | 2.45 | 15.1 | 0.978 | 1.94 | 1.91 | 1.75 |  |  |  | 
3 | COc1ccc(OCC(C)(C)O)cc1 |  | > 84.1 | > 100 |  |  |  |  |  |  |  |  |  |  |  |  |  | > 100 | > 100 |  | 
4 | COc1ccc2c(c1)c(=O)c1c(NCCCN(C)C)ccc3ncn2c31 |  | 8.4 | 16.4 | 15.6 | 18.7 | 14.9 | 32.8 | 19.4 | 18.8 |  |  |  |  |  |  |  | 28.6 | 22.6 | 24.8 | 32
5 | CCOC(=O)/C=C/c1c[nH]c(=O)[nH]c1=O |  | > 75 | > 75 |  |  |  |  |  |  |  |  |  |  |  |  |  | > 75 | > 75 | > 75 | 
6 | COC1C(OC(C)=O)CC(=O)OC(C)C/C=C/C=C\C(O)C(C)CC(CC=O)C1OC1OC(C)C(OC2CC(C)(O)C(OC(=O)CC(C)C)C(C)O2)C(N(C)C)C1O (stereo unspecified) | > 100 | > 100 | > 100 | > 100 | > 100 | > 100 | > 100 | > 100 | > 100 |  |  |  |  |  |  |  |  |  |  | > 100
7 | c1ccc(N2N=C3N(c4ccccc4)C2N3c2ccccc2)cc1 | > 100 | > 100 | > 100 | > 100 | > 100 |  | > 100 | 31.6 | 41.8 |  |  |  |  |  |  |  |  |  |  | > 100
8 | CCOC(=O)C1=C(C)N(C2OC(COC(C)=O)C(OC(C)=O)C(OC(C)=O)C2OC(C)=O)C(=O)NC1c1ccccc1 (stereo unspecified) |  |  |  |  |  |  |  |  |  |  |  |  |  |  |  |  | > 100 | > 100 | > 100 | 
9 | COc1c2occc2cc2ccc(=O)oc12 | > 100 | > 100 | > 100 | > 100 | > 100 | > 100 | > 100 | > 100 | > 100 |  |  | > 100 |  |  |  |  |  |  |  | > 100
10 | COc1ccc2c(c1)C=C(C(C)(C)C)NS2(=O)=O |  |  |  |  |  | > 100 |  |  |  |  |  |  |  |  |  |  | > 100 | > 100 | > 100 | 
11 | C[C@]12CC/C(=N\O)C=C1CC[C@@H]1[C@@H]2CC[C@]2(C)C(=N/O)/C(=C/c3ccncc3)C[C@@H]12 | > 100 | 67.9 | > 100 | 62.6 | > 100 | > 100 | 88.5 | 95.8 | > 100 |  |  |  |  |  |  |  |  |  |  | > 100
12 | CC1OC(OC2C[C@](O)(C(=O)CBr)Cc3c(O)c4c(c(O)c32)C(=O)c2ccccc2C4=O)C(F)C(O)C1O (stereo partly specified) | 25.2 | > 100 | > 67.7 | > 68.2 | 63.2 | > 59.5 | > 82 | 31.2 | 44.7 |  |  |  |  |  |  |  |  |  |  | > 100
13 | CC(=O)OCc1nnn2c1CCC2 |  |  |  |  |  |  |  |  |  |  |  |  |  |  |  |  | > 100 |  | > 100 | 
14 | CC(c1ccccc1)C(O)S(=O)(=O)O (stereo unspecified) |  |  |  |  |  | > 100 |  |  |  |  |  |  |  |  |  |  | > 100 | > 100 | > 100 | 
15 | CCCCn1c(C)c2c(c1C)C(=O)N(CCN1CCN(c3ccccc3Cl)CC1)C2=O | > 100 | 99 | > 100 | 79.5 | > 100 |  | 75 | 90.3 | > 100 |  |  |  |  |  |  |  |  |  |  | 41.7
